Source: ChEMBL document CHEMBL3352057, “Novel fluorinated pyrrolo[1,2-a]pyrazine-2,6-dione derivatives: synthesis and anticonvulsant evaluation in animal models of epilepsy” (Bioorg Med Chem, 2014)
The source made the active and inactive calls. The rule behind the calls is not given here.

System: Rattus norvegicus
Test: Neurotoxicity in MES Sprague-Dawley rat model at 30 mg/kg, po measured after 1 hr
Assay type: toxicity, organism-based
Design: dose 30 mg/kg, route oral
Conditions: in vivo

Row | Structure (SMILES) | Activity
1 | O=C1NC(=O)[C@@H]2CCCN2[C@H]1c1ccccc1F | Non-toxic

System: Mus musculus
Test: Neurotoxicity in albino CF1 mouse at 100 mg/kg, ip measured after 1 hr
Assay type: toxicity, organism-based
Design: dose 100 mg/kg, route intraperitoneal
Conditions: in vivo

Row | Structure (SMILES) | Activity
2 | O=C1NC(=O)[C@@H]2CCCN2[C@H]1c1ccccc1F | Non-toxic

System: Rattus norvegicus
Test: Neurotoxicity in MES Sprague-Dawley rat model at 30 mg/kg, po measured after 4 hrs
Assay type: toxicity, organism-based
Design: dose 30 mg/kg, route oral
Conditions: in vivo

Row | Structure (SMILES) | Activity
3 | O=C1NC(=O)[C@@H]2CCCN2[C@H]1c1ccccc1F | Non-toxic

System: Rattus norvegicus
Test: Anticonvulsant activity in Sprague-Dawley rat assessed as protection against maximal electroshock-induced seizures at 30 mg/kg, po measured after 2 hrs
Assay type: functional, organism-based
Design: dose 30 mg/kg
Conditions: not given

Row | Structure (SMILES) | Activity
4 | O=C1NC(=O)[C@@H]2CCCN2[C@H]1c1ccccc1F | inactive

System: Rattus norvegicus
Test: Neurotoxicity in MES Sprague-Dawley rat model at 30 mg/kg, ip measured after 0.5 hr
Assay type: toxicity, organism-based
Design: dose 30 mg/kg, route intraperitoneal
Conditions: in vivo

Row | Structure (SMILES) | Activity
5 | O=C1NC(=O)[C@@H]2CCCN2[C@H]1c1ccccc1F | Non-toxic

System: Mus musculus
Test: Neurotoxicity in albino CF1 mouse at 100 mg/kg, ip measured after 4 hrs
Assay type: toxicity, organism-based
Design: dose 100 mg/kg, route intraperitoneal
Conditions: in vivo

Row | Structure (SMILES) | Activity
6 | O=C1NC(=O)[C@@H]2CCCN2[C@H]1c1ccccc1F | Non-toxic

System: Rattus norvegicus
Test: Anticonvulsant activity in Sprague-Dawley rat assessed as protection against maximal electroshock-induced seizures at 30 mg/kg, po measured after 0.25 hr
Assay type: functional, organism-based
Design: dose 30 mg/kg
Conditions: not given

Row | Structure (SMILES) | Activity
7 | O=C1NC(=O)[C@@H]2CCCN2[C@H]1c1ccccc1F | inactive

System: Mus musculus
Test: Anticonvulsant activity in albino CF1 mouse assessed as protection against subcutaneous metrazol-induced seizures at 100 mg/kg, ip measured after 1 hr
Assay type: functional, organism-based
Design: dose 100 mg/kg
Conditions: not given

Row | Structure (SMILES) | Activity
8 | O=C1NC(=O)[C@@H]2CCCN2[C@H]1c1ccccc1F | inactive

System: Mus musculus
Test: Neurotoxicity in albino CF1 mouse at 100 mg/kg, ip measured after 0.5 hr
Assay type: toxicity, organism-based
Design: dose 100 mg/kg, route intraperitoneal
Conditions: in vivo

Row | Structure (SMILES) | Activity
9 | O=C1NC(=O)[C@@H]2CCCN2[C@H]1c1ccccc1F | Non-toxic

System: Rattus norvegicus
Test: Neurotoxicity in MES Sprague-Dawley rat model at 30 mg/kg, ip measured after 0.25 hr
Assay type: toxicity, organism-based
Design: dose 30 mg/kg, route intraperitoneal
Conditions: in vivo

Row | Structure (SMILES) | Activity
10 | O=C1NC(=O)[C@@H]2CCCN2[C@H]1c1ccccc1F | Non-toxic

System: Rattus norvegicus
Test: Anticonvulsant activity in Sprague-Dawley rat assessed as protection against maximal electroshock-induced seizures at 30 mg/kg, ip measured after 0.5 hr
Assay type: functional, organism-based
Design: dose 30 mg/kg
Conditions: not given

Row | Structure (SMILES) | Activity
11 | O=C1NC(=O)[C@@H]2CCCN2[C@H]1c1ccccc1F | inactive

System: Mus musculus
Test: Anticonvulsant activity in albino CF1 mouse assessed as protection against maximal electroshock-induced seizures at 100 mg/kg, ip measured after 0.5 hr
Assay type: functional, organism-based
Design: dose 100 mg/kg
Conditions: not given

Row | Structure (SMILES) | Activity
12 | O=C1NC(=O)[C@@H]2CCCN2[C@H]1c1ccccc1F | Active

System: Rattus norvegicus
Test: Anticonvulsant activity in Sprague-Dawley rat assessed as protection against maximal electroshock-induced seizures at 30 mg/kg, ip measured after 4 hrs
Assay type: functional, organism-based
Design: dose 30 mg/kg
Conditions: not given

Row | Structure (SMILES) | Activity
13 | O=C1NC(=O)[C@@H]2CCCN2[C@H]1c1ccccc1F | inactive

System: Mus musculus
Test: Anticonvulsant activity in albino CF1 mouse assessed as protection against subcutaneous metrazol-induced seizures at 100 mg/kg, ip measured after 0.5 hr
Assay type: functional, organism-based
Design: dose 100 mg/kg
Conditions: not given

Row | Structure (SMILES) | Activity
14 | O=C1NC(=O)[C@@H]2CCCN2[C@H]1c1ccccc1F | inactive

System: Mus musculus
Test: Anticonvulsant activity in albino CF1 mouse assessed as protection against subcutaneous metrazol-induced seizures at 100 mg/kg, ip measured after 0.25 hr
Assay type: functional, organism-based
Design: dose 100 mg/kg
Conditions: not given

Row | Structure (SMILES) | Activity
15 | O=C1NC(=O)[C@@H]2CCCN2[C@H]1c1ccccc1F | Active

System: Rattus norvegicus
Test: Neurotoxicity in MES Sprague-Dawley rat model at 30 mg/kg, po measured after 0.25 hr
Assay type: toxicity, organism-based
Design: dose 30 mg/kg, route oral
Conditions: in vivo

Row | Structure (SMILES) | Activity
16 | O=C1NC(=O)[C@@H]2CCCN2[C@H]1c1ccccc1F | Non-toxic

System: Rattus norvegicus
Test: Anticonvulsant activity in Sprague-Dawley rat assessed as protection against maximal electroshock-induced seizures at 30 mg/kg, po measured after 1 hr
Assay type: functional, organism-based
Design: dose 30 mg/kg
Conditions: not given

Row | Structure (SMILES) | Activity
17 | O=C1NC(=O)[C@@H]2CCCN2[C@H]1c1ccccc1F | inactive

System: Rattus norvegicus
Test: Neurotoxicity in MES Sprague-Dawley rat model at 30 mg/kg, ip measured after 2 hrs
Assay type: toxicity, organism-based
Design: dose 30 mg/kg, route intraperitoneal
Conditions: in vivo

Row | Structure (SMILES) | Activity
18 | O=C1NC(=O)[C@@H]2CCCN2[C@H]1c1ccccc1F | Non-toxic

System: Rattus norvegicus
Test: Anticonvulsant activity in Sprague-Dawley rat assessed as protection against maximal electroshock-induced seizures at 30 mg/kg, po measured after 4 hrs
Assay type: functional, organism-based
Design: dose 30 mg/kg
Conditions: not given

Row | Structure (SMILES) | Activity
19 | O=C1NC(=O)[C@@H]2CCCN2[C@H]1c1ccccc1F | inactive

System: Mus musculus
Test: Anticonvulsant activity in albino CF1 mouse assessed as protection against maximal electroshock-induced seizures at 100 mg/kg, ip measured after 1 hr
Assay type: functional, organism-based
Design: dose 100 mg/kg
Conditions: not given

Row | Structure (SMILES) | Activity
20 | O=C1NC(=O)[C@@H]2CCCN2[C@H]1c1ccccc1F | inactive

System: Mus musculus
Test: Anticonvulsant activity in albino CF1 mouse assessed as protection against maximal electroshock-induced seizures at 100 mg/kg, ip measured after 4 hrs
Assay type: functional, organism-based
Design: dose 100 mg/kg
Conditions: not given

Row | Structure (SMILES) | Activity
21 | O=C1NC(=O)[C@@H]2CCCN2[C@H]1c1ccccc1F | inactive

System: Rattus norvegicus
Test: Anticonvulsant activity in Sprague-Dawley rat assessed as protection against maximal electroshock-induced seizures at 30 mg/kg, po measured after 0.5 hr
Assay type: functional, organism-based
Design: dose 30 mg/kg
Conditions: not given

Row | Structure (SMILES) | Activity
22 | O=C1NC(=O)[C@@H]2CCCN2[C@H]1c1ccccc1F | inactive

System: Rattus norvegicus
Test: Anticonvulsant activity in Sprague-Dawley rat assessed as protection against maximal electroshock-induced seizures at 30 mg/kg, ip measured after 1 hr
Assay type: functional, organism-based
Design: dose 30 mg/kg
Conditions: not given

Row | Structure (SMILES) | Activity
23 | O=C1NC(=O)[C@@H]2CCCN2[C@H]1c1ccccc1F | inactive

System: Mus musculus
Test: Anticonvulsant activity in albino CF1 mouse assessed as protection against maximal electroshock-induced seizures at 100 mg/kg, ip measured after 0.25 hr
Assay type: functional, organism-based
Design: dose 100 mg/kg
Conditions: not given

Row | Structure (SMILES) | Activity
24 | O=C1NC(=O)[C@@H]2CCCN2[C@H]1c1ccccc1F | inactive

System: Mus musculus
Test: Neurotoxicity in albino CF1 mouse at 100 mg/kg, ip measured after 0.25 hr
Assay type: toxicity, organism-based
Design: dose 100 mg/kg, route intraperitoneal
Conditions: in vivo

Row | Structure (SMILES) | Activity
25 | O=C1NC(=O)[C@@H]2CCCN2[C@H]1c1ccccc1F | Toxic

System: Rattus norvegicus
Test: Anticonvulsant activity in Sprague-Dawley rat assessed as protection against maximal electroshock-induced seizures at 30 mg/kg, ip measured after 0.25 hr
Assay type: functional, organism-based
Design: dose 30 mg/kg
Conditions: not given

Row | Structure (SMILES) | Activity
26 | O=C1NC(=O)[C@@H]2CCCN2[C@H]1c1ccccc1F | inactive

System: Rattus norvegicus
Test: Neurotoxicity in MES Sprague-Dawley rat model at 30 mg/kg, po measured after 0.5 hr
Assay type: toxicity, organism-based
Design: dose 30 mg/kg, route oral
Conditions: in vivo

Row | Structure (SMILES) | Activity
27 | O=C1NC(=O)[C@@H]2CCCN2[C@H]1c1ccccc1F | Non-toxic

System: Mus musculus
Test: Anticonvulsant activity in albino CF1 mouse assessed as protection against subcutaneous metrazol-induced seizures at 100 mg/kg, ip measured after 4 hrs
Assay type: functional, organism-based
Design: dose 100 mg/kg
Conditions: not given

Row | Structure (SMILES) | Activity
28 | O=C1NC(=O)[C@@H]2CCCN2[C@H]1c1ccccc1F | inactive

System: Rattus norvegicus
Test: Anticonvulsant activity in Sprague-Dawley rat assessed as protection against maximal electroshock-induced seizures at 30 mg/kg, ip measured after 2 hrs
Assay type: functional, organism-based
Design: dose 30 mg/kg
Conditions: not given

Row | Structure (SMILES) | Activity
29 | O=C1NC(=O)[C@@H]2CCCN2[C@H]1c1ccccc1F | inactive

System: Rattus norvegicus
Test: Neurotoxicity in MES Sprague-Dawley rat model at 30 mg/kg, po measured after 2 hrs
Assay type: toxicity, organism-based
Design: dose 30 mg/kg, route oral
Conditions: in vivo

Row | Structure (SMILES) | Activity
30 | O=C1NC(=O)[C@@H]2CCCN2[C@H]1c1ccccc1F | Non-toxic

System: Rattus norvegicus
Test: Neurotoxicity in MES Sprague-Dawley rat model at 30 mg/kg, ip measured after 4 hrs
Assay type: toxicity, organism-based
Design: dose 30 mg/kg, route intraperitoneal
Conditions: in vivo

Row | Structure (SMILES) | Activity
31 | O=C1NC(=O)[C@@H]2CCCN2[C@H]1c1ccccc1F | Non-toxic

System: Rattus norvegicus
Test: Neurotoxicity in MES Sprague-Dawley rat model at 30 mg/kg, ip measured after 1 hr
Assay type: toxicity, organism-based
Design: dose 30 mg/kg, route intraperitoneal
Conditions: in vivo

Row | Structure (SMILES) | Activity
32 | O=C1NC(=O)[C@@H]2CCCN2[C@H]1c1ccccc1F | Non-toxic
